Assay results published in ChEMBL document CHEMBL1201862, “PubChem BioAssay data set” (2004).
Where a name gives a salt, the structure may show the parent alone.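 Assay format: 96-well plates, 48-hour exposure. Here, GI50 denotes the concentration required for 50% inhibition of growth.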 The source made the active and inactive calls. Rule as the data show it: active = GI50 up to about 1.1 µM and inactive = higher.

Experiments:
Test in all cases: NCI tumour cell line growth inhibition, 48 h
T47D = test system: T47D
SF-539 = test system: SF-539
CCRF-CEM = test system: CCRF-CEM
SF-295 = test system: SF-295
NCI-H23 = test system: NCI-H23
HL-60 = test system: HL-60
HOP-92 = test system: HOP-92
HT-29 = test system: HT-29
MDA-N = test system: MDA-N
BT-549 = test system: BT-549
HOP-62 = test system: HOP-62
COLO 205 = test system: COLO 205
UO-31 = test system: UO-31
HCT-15 = test system: HCT-15
A498 = test system: A498
DU-145 = test system: DU-145
KM12 = test system: KM12
OVCAR-3 = test system: OVCAR-3
SN12C = test system: SN12C
Hs-578T = test system: Hs-578T

SMILES | GI50 (T47D) | GI50 (SF-539) | GI50 (CCRF-CEM) | GI50 (SF-295) | GI50 (NCI-H23) | GI50 (HL-60) | GI50 (HOP-92) | GI50 (HT-29) | GI50 (MDA-N) | GI50 (BT-549) | GI50 (HOP-62) | GI50 (COLO 205) | GI50 (UO-31) | GI50 (HCT-15) | GI50 (A498) | GI50 (DU-145) | GI50 (KM12) | GI50 (OVCAR-3) | GI50 (SN12C) | GI50 (Hs-578T)
COc1ccc(Cc2nccc3cc(OC)c(OC)cc23)cc1OC [PAPAVERINE HYDROCHLORIDE] | 19.5 µM (inactive) | 76 µM (inactive) | > 100 µM (inactive) | 84.9 µM (inactive) | 19.8 µM (inactive) | 45 µM (inactive) | 36.5 µM (inactive) | 41.3 µM (inactive) | 94 µM (inactive) | 53.8 µM (inactive) | 43.8 µM (inactive) | > 100 µM (inactive) | 78.7 µM (inactive) | 87.3 µM | 77.3 µM (inactive) | > 100 µM (inactive) | > 100 µM (inactive) | > 100 µM (inactive) | > 100 µM (inactive) | > 100 µM (inactive)
COc1ccc(C(NS(=O)(=O)c2ccc(C)cc2)c2c(C(CBr)OC)c3ccccc3n2S(=O)(=O)c2ccccc2)cc1OC (stereo not given) | > 100 µM (inactive) | > 100 µM (inactive) | 89.7 µM (inactive) | > 100 µM (inactive) | > 100 µM (inactive) | > 100 µM (inactive) | 85.5 µM (inactive) | > 100 µM (inactive) | > 100 µM (inactive) | > 100 µM (inactive) | > 100 µM (inactive) | > 100 µM (inactive) | > 100 µM (inactive) | > 100 µM | > 100 µM (inactive) | > 100 µM (inactive) | > 100 µM (inactive) | > 100 µM (inactive) | > 100 µM (inactive) | > 100 µM (inactive)
CCS(=O)(=O)CCn1c(=O)c2c(ncn2C)n(C)c1=O | > 100 µM (inactive) | > 100 µM (inactive) | > 100 µM (inactive) | > 100 µM (inactive) | > 100 µM (inactive) | > 100 µM (inactive) | > 100 µM (inactive) | > 100 µM (inactive) | > 100 µM (inactive) | > 100 µM (inactive) | > 100 µM (inactive) | > 100 µM (inactive) | > 100 µM (inactive) | > 100 µM | > 100 µM (inactive) | > 100 µM (inactive) | > 100 µM (inactive) | > 100 µM (inactive) | > 100 µM (inactive) | > 100 µM (inactive)
